Experimental data reported in EP1410783B1, “Foaming compositions” (Beiersdorf AG, priority 2001, dated 2003).

Experiment: Polarity of lipids (no method described)
Type: physicochemical
[1] = lipids of the oil phase with polarity ≤ 30 mN/m, listed by manufacturer, trade name and INCI name
[2] = further lipids with polarity ≥ 30 mN/m, listed by INCI name

Polarität [1] | Polarität [2] | Compound
10,1 mN/m | – | PEG 2 Diethylenhexanoate [Dermol 488]
– | 40,5 mN/m | CCCCCCCC/C=C\CCCCCCCC(=O)OCCOCCOCC [Ethoxydiglycol Oleate]
– | 31,6 mN/m | CCCCCCCCOC(=O)CCCCCCCCCCCCCCC(C)C [Octyl Isostearate]
22,1 mN/m | – | CCCCCCCCCCCCCC(=O)OCC(CCCCCCCC)CCCCCCCCCC (stereo not drawn) [M.O.D., Octyldodeceyl Myristate]
29,7 mN/m | – | CCCCCCCCCC(=O)OCCCC(C)C [Dermol IHD, Isohexyldecanoate]
22,7 mN/m | – | Phenyl Trimethicone [Silikonöl VP 1120]
28,6 mN/m | – | Cetearyl Isononanoate [Cetiol SN]
24,5 mN/m | – | Isotridecyl 3,5,5 Trimethylhexanonanoate [Dermol 139]
17,8 mN/m | – | CCCCCCCCCCCCCCCCCCOC(=O)CCCCCC [Tegosoft SH, Stearyl Heptanoate]

Continued, compound first:

Compound | Polarität [1] | Polarität [2]
Cyclomethicone [DC Fluid 345] | 28,5 mN/m | –
CCCCC(CC)COC(=O)CCCCCC(C)C (stereo not drawn) [2- Ethylhexyl Isononanoate] | – | 31,0 mN/m
CCCCCCCCCCCCCC(C)C [Isohexadecane] | – | 43,8 mN/m
CCCCCCCC(=O)OCCCCCCCC(C)C [Dermol 108, Isodecyl Octanoate] | 29,6 mN/m | –
Cyclopolydimethylsiloxan [Dow Corning Fluid 244] | 28,5 mN/m | –
CC(C)CCCCCCCOC(=O)CC(C)CC(C)(C)C (stereo not drawn) [Dermol 109, Isodecyl 3,5,5 Trimethyl Hexanoate] | 29,1 mN/m | –
CCCCCCCCCCC(CO)CCCCCCCC (stereo not drawn) [Eutanol G, Octyldodecanol] | 24,8 mN/m | –
CCCCCCCC(=O)OCC(COC(=O)CCCCCCC)OC(=O)CCCCCCC [Trivent OCG, Tricaprylin] | 20,2 mN/m | –
CCCCCCCCC(CO)CCCCCC (stereo not drawn) [Isofol 16, Hexyl Decanol] | 24,3 mN/m | –
Triisostearin [Prisorine 2041 GTIS] | 2,4 mN/m | –
CCCCCCCCCCCCCCCCCC(=O)OC(C)C [Isopropylstearat, Isopropyl Stearate] | 21,9 mN/m | –
CCCCCCC(CCCC)C(=O)O (stereo not drawn) [Isocarb 12, Butyl Octanoicacid] | 22,1 mN/m | –
CCCCCCOCCCCCC [Dihexyl Ether] | 29,2 mN/m | –
Isoeikosan | – | 41,9 mN/m
CCCCCCC(CO)CCCC (stereo not drawn) [Isofol 12, Butyl Octanol] | 17,4 mN/m | –
Dioctylcyclohexane | – | 39,0 mN/m
Isocetyl Palmitate | – | 36,2 mN/m
CCCCOC(=O)CCCCC(=O)OCCCC [Cetiol B, Dibutyl Adipate] | 14,3 mN/m | –
CC(C)CCCCCCCOC(=O)C(C)(C)C [DUB VCI 10, Isodecyl Neopentanoate] | 29,9 mN/m | –
CC(CCOC(=O)CC(C)CC(C)(C)C)CC(C)(C)C (stereo not drawn) [Trimethylhexyl Isononanoate] | – | 31,1 mN/m
CCCCC(CC)C(=O)OCCC(C)CC(C)(C)C (stereo not drawn) [Dermol 98, 2-Ethylhexanosäure 3,5,5 Trimethylester] | 26,2 mN/m | –
